Assay results: patent publication US10576085B2, “Substituted aminopurine compounds, compositions thereof, and methods of treatment therewith” (Signal Pharmaceuticals, LLC, priority 2016, dated 2020)

Test system: cancer cell lines of Table 2
Experiment: Multiplexed cytotoxicity assay: apoptosis (activated caspase-3; Cal_X2, Cal_X5, Max_Fold_Change)
Format: cell-based
Method: Cells are grown in RPMI1640, 10% FBS, 2 mM L-alanyl-L-Glutamine, 1 mM Na pyruvate or a special medium in a humidified atmosphere of 5% CO2 at 37° C. Cells are seeded into 384-well plates and incubated in a humidified atmosphere of 5% CO2 at 37° C. Compounds are added 24 h post cell seeding. At the same time, a time zero untreated cell plate is generated. After a 72 hour incubation period, cells are fixed and stained with fluorescently labeled antibodies and nuclear dye to allow visualization of nuclei, apoptotic cells and mitotic cells. Apoptotic cells are detected using an anti-active caspase-3 antibody. Mitotic cells are detected using an anti phospho-histone-3 antibody. Compounds are serially diluted 3.16-fold and assayed over 10 concentrations in a final assay concentration of 0.1% DMSO from the highest test concentration of 10 μM. Automated fluorescence microscopy was carried out using a Molecular Devices ImageXpress Micro XL high-content imager, and images are collected with a 4× objective.
The activated caspase-3 marker labels cells from early to late stage apoptosis. Concentrations of test compound that cause a 5-fold induction in the caspase-3 signal (Cal_X5) indicate significant apoptosis induction. The maximal induction of caspase 3 by compound in comparison with DMSO control is reported as Max_Fold_Change.
In Another Experiment, Cells were Grown in RPMI1640, 10% FBS, 2 mM L-alanyl-L-Glutamine, 1 mM Na pyruvate or a special medium in a humidified atmosphere of 5% CO2 at 37° C. Cells were seeded into 384-well plates and incubated in a humidified atmosphere of 5% CO2 at 37° C. Compounds were added 24 h post cell seeding. At the same time, a time zero untreated cell plate was generated. After a 72 hour incubation period, cells were fixed and stained with fluorescently labeled antibodies and nuclear dye to allow visualization of nuclei, apoptotic cells and mitotic cells. Apoptotic cells were detected using an anti-active caspase-3 antibody. Mitotic cells were detected using an anti phospho-histone-3 antibody. Compounds were serially diluted 3.16-fold and assayed over 10 concentrations in a final assay concentration of 0.1% DMSO from the highest test concentration of 10 μM. Automated fluorescence microscopy was carried out using a Molecular Devices ImageXpress Micro XL high-content imager, and images were collected with a 4× objective.
The activated caspase-3 marker labels cells from early to late stage apoptosis. Concentrations of test compound that cause a 2-fold (Cal-X2) or 5-fold induction in the caspase-3 signal (Cal_X5) indicated significant apoptosis induction. The maximal induction of caspase 3 by compound in comparison with DMSO control was reported as Max_Fold_Change.

C[C@]1(C(N)=O)CC[C@@H](n2c(Nc3c(Cl)cc(Cl)cc3Cl)nc3cnc(N[C@@H]4CCOC[C@H]4F)nc32)CC1 [Compound 1, cis-4-[2-{[(3S,4R)-3-fluorooxan-4-yl]amino}-8-(2,4,6-trichloroanilino)-9H-purin-9-yl]-1-methyl cyclohexane-1-carboxamide]
CalX2 (HS611T, Lymphoma): 2.8507 µM
CalX5 (HS611T, Lymphoma): 10 µM
Max fold change (HS611T, Lymphoma): 3.84
CalX2 (HS688AT, Skin, Melanoma): 10 µM
CalX5 (HS688AT, Skin, Melanoma): 10 µM
Max fold change (HS688AT, Skin, Melanoma): 1.61
CalX2 (HS695T, Skin, Melanoma): 0.0253 µM
CalX5 (HS695T, Skin, Melanoma): 0.0727 µM
Max fold change (HS695T, Skin, Melanoma): 22.05
CalX2 (HS852T, Skin, Melanoma): 0.05 µM
CalX5 (HS852T, Skin, Melanoma): 0.234 µM
Max fold change (HS852T, Skin, Melanoma): 6.51
CalX2 (HT1197, Bladder): 0.1601 µM
CalX5 (HT1197, Bladder): 10 µM
Max fold change (HT1197, Bladder): 4.16
CalX2 (HT1376, Bladder): 0.0524 µM
CalX5 (HT1376, Bladder): 0.167 µM
Max fold change (HT1376, Bladder): 10.87
CalX2 (HT, Lymphoma): 8.6354 µM
CalX5 (HT, Lymphoma): 10 µM
Max fold change (HT, Lymphoma): 2.44
CalX2 (HUCCT1, Liver): 0.0222 µM
CalX5 (HUCCT1, Liver): 0.0406 µM
Max fold change (HUCCT1, Liver): 11.54
CalX2 (HUH6CLONE5, Liver): 0.0631 µM
CalX5 (HUH6CLONE5, Liver): 0.302 µM
Max fold change (HUH6CLONE5, Liver): 8.25
CalX2 (J82, Bladder): 2.4365 µM
CalX5 (J82, Bladder): 10 µM
Max fold change (J82, Bladder): 3.17
CalX2 (JEKO1, Lymphoma): 4.3369 µM
CalX5 (JEKO1, Lymphoma): 10 µM
Max fold change (JEKO1, Lymphoma): 3.11
CalX2 (JIYOYE, Lymphoma): 4.4004 µM
CalX5 (JIYOYE, Lymphoma): 5.35 µM
Max fold change (JIYOYE, Lymphoma): 11.1
CalX2 (JRT3T35, Leukemia): 2.6364 µM
CalX5 (JRT3T35, Leukemia): 3.8 µM
Max fold change (JRT3T35, Leukemia): 14.26
CalX2 (JURKAT, Leukemia): 1.6173 µM
CalX5 (JURKAT, Leukemia): 3.28 µM
Max fold change (JURKAT, Leukemia): 14.48
CalX2 (K562, Leukemia): 2.9298 µM
CalX5 (K562, Leukemia): 4.86 µM
Max fold change (K562, Leukemia): 51.89
CalX2 (KG1, Leukemia): 2.5811 µM
CalX5 (KG1, Leukemia): 10 µM
Max fold change (KG1, Leukemia): 2.5
CalX2 (KU812, Leukemia): 0.03 µM
CalX5 (KU812, Leukemia): 8.02 µM
Max fold change (KU812, Leukemia): 5.63
CalX2 (L428, Lymphoma): 4.2384 µM
CalX5 (L428, Lymphoma): 5.88 µM
Max fold change (L428, Lymphoma): 7.51
CalX2 (MC116, Lymphoma): 2.8763 µM
CalX5 (MC116, Lymphoma): 5.18 µM
Max fold change (MC116, Lymphoma): 9.46
CalX2 (MEG01, Leukemia): 0.5718 µM
CalX5 (MEG01, Leukemia): 10 µM
Max fold change (MEG01, Leukemia): 2.77
CalX2 (MHHPREB1, Leukemia): 5.1142 µM
CalX5 (MHHPREB1, Leukemia): 7.66 µM
Max fold change (MHHPREB1, Leukemia): 11.43
CalX2 (MOLT3, Leukemia): 5.88 µM
CalX5 (MOLT3, Leukemia): 10 µM
Max fold change (MOLT3, Leukemia): 3.63
CalX2 (MOLT16, Leukemia): 2.4102 µM
CalX5 (MOLT16, Leukemia): 4.97 µM
Max fold change (MOLT16, Leukemia): 8.06
CalX2 (MV411, Leukemia): 0.0933 µM
CalX5 (MV411, Leukemia): 1.15 µM
Max fold change (MV411, Leukemia): 8.12
CalX2 (MX1, Leukemia): 1.1016 µM
CalX5 (MX1, Leukemia): 10 µM
Max fold change (MX1, Leukemia): 3.78
CalX2 (NALM6, Leukemia): 0.1241 µM
CalX5 (NALM6, Leukemia): 10 µM
Max fold change (NALM6, Leukemia): 5
CalX2 (NAMALWA, Lymphoma): 5.9431 µM
CalX5 (NAMALWA, Lymphoma): 10 µM
Max fold change (NAMALWA, Lymphoma): 2.68
CalX2 (OCUG1, Liver): 0.0848 µM
CalX5 (OCUG1, Liver): 0.49 µM
Max fold change (OCUG1, Liver): 5.49
CalX2 (RAJI, Lymphoma): 2.5564 µM
CalX5 (RAJI, Lymphoma): 4.07 µM
Max fold change (RAJI, Lymphoma): 24.81
CalX2 (RAMOSRA1, Lymphoma): 4.5496 µM
CalX5 (RAMOSRA1, Lymphoma): 7.39 µM
Max fold change (RAMOSRA1, Lymphoma): 25.1
CalX2 (REC1, Lymphoma): 10 µM
CalX5 (REC1, Lymphoma): 10 µM
Max fold change (REC1, Lymphoma): 1.86
CalX2 (RPMI6666, Lymphoma): 3.0419 µM
CalX5 (RPMI6666, Lymphoma): 4.37 µM
Max fold change (RPMI6666, Lymphoma): 26.35
CalX2 (RS411, Leukemia): 3.8025 µM
CalX5 (RS411, Leukemia): 8.4 µM
Max fold change (RS411, Leukemia): 5.83
CalX2 (SCABER, Bladder): 0.0086 µM
CalX5 (SCABER, Bladder): 0.0506 µM
Max fold change (SCABER, Bladder): 29.47
CalX2 (SCC9, Head and Neck): 0.6679 µM
CalX5 (SCC9, Head and Neck): 3.86 µM
Max fold change (SCC9, Head and Neck): 9.58
CalX2 (SKNEP1, Kidney): 10 µM
CalX5 (SKNEP1, Kidney): 10 µM
Max fold change (SKNEP1, Kidney): 1.15
CalX2 (SNU423, Liver): 0.0909 µM
CalX5 (SNU423, Liver): 1.65 µM
Max fold change (SNU423, Liver): 7.32
CalX2 (SR, Lymphoma): 1.2842 µM
CalX5 (SR, Lymphoma): 3.07 µM
Max fold change (SR, Lymphoma): 33.52
CalX2 (ST486, Lymphoma): 4.2422 µM
CalX5 (ST486, Lymphoma): 6.11 µM
Max fold change (ST486, Lymphoma): 10.85
CalX2 (SUDHL4, Lymphoma): 2.5668 µM
CalX5 (SUDHL4, Lymphoma): 4.83 µM
Max fold change (SUDHL4, Lymphoma): 10.75
CalX2 (SUDHL5, Lymphoma): 1.6359 µM
CalX5 (SUDHL5, Lymphoma): 4.54 µM
Max fold change (SUDHL5, Lymphoma): 10.37
CalX2 (SUDHL8, Lymphoma): 1.2344 µM
CalX5 (SUDHL8, Lymphoma): 4.19 µM
Max fold change (SUDHL8, Lymphoma): 10.79
CalX2 (SUDHL10, Lymphoma): 3.611 µM
CalX5 (SUDHL10, Lymphoma): 4.87 µM
Max fold change (SUDHL10, Lymphoma): 11.63
CalX2 (SUPT1, Lymphoma): 4.5476 µM
CalX5 (SUPT1, Lymphoma): 9.21 µM
Max fold change (SUPT1, Lymphoma): 5.76
CalX2 (T24, Bladder): 4.5443 µM
CalX5 (T24, Bladder): 10 µM
Max fold change (T24, Bladder): 2.61
CalX2 (TCCSUP, Bladder): 5.6435 µM
CalX5 (TCCSUP, Bladder): 10 µM
Max fold change (TCCSUP, Bladder): 3.67
CalX2 (TF1, Leukemia): 0.006 µM
CalX5 (TF1, Leukemia): 0.0296 µM
Max fold change (TF1, Leukemia): 16.1
CalX2 (THP1, Leukemia): 0.132 µM
CalX5 (THP1, Leukemia): 3.9 µM
Max fold change (THP1, Leukemia): 6.3
CalX2 (TUR, Lymphoma): 0.6984 µM
CalX5 (TUR, Lymphoma): 3.45 µM
Max fold change (TUR, Lymphoma): 17.35
CalX2 (UMUC3, Bladder): 2.7934 µM
CalX5 (UMUC3, Bladder): 5.76 µM
Max fold change (UMUC3, Bladder): 6.56
Induction of apoptosis (variety of cancer cell lines): induce apoptosis
